Assay results taken from article PMC7468108 (Communications Biology, 2020).

Legend:
[1] = molecular target: T1, pre-formed fibrils of Aβ42 (Homo sapiens, UniProt P05067); assay: CD spectroscopy of pre-formed Aβ42 fibrils with the tested molecules; conditions: Aβ42 (10 µM) : molecule 1:5
T1 construct: purchased rPeptide (USA)
Experimental: For efficient treatment of proteinopathies it may be advantageous to disassemble amyloid aggregates/fibrils which are usually already present at the time of diagnosis[75]–[77]. […] Then, various doses of the hybrid molecules were added to the pre-formed fibrils and the mixtures were incubated for additional 10 h. The process of disaggregation was monitored by ThT-binding assay, CD spectroscopy, TEM and Congo red staining (Fig. 5).
(§1) The blank was subtracted from the acquired CD spectra. For the CD study in the presence of the tryptophan-galacosylamine molecules, the spectra of hybrid molecules were also recorded separately and subtracted from the respective sample spectra. The normalized data were plotted using Origin pro 2015 software.

Aβ42 = molecular target: T2, Aβ42 (Homo sapiens, UniProt P05067); assay: CD spectroscopy of Aβ42 aggregated with the tested molecules; conditions: 5-fold molar excess of compound
T2 construct: purchased rPeptide (USA)
T2 sequence (P05067 672-713 limits assumed): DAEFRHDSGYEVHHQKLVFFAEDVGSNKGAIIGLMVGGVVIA
Experimental: as §1

T1 sequence (P05067 672-713 limits assumed): as above

How did the “Normalized CD spectra” value ([1]; wave length 190.00) turn out when NC(Cc1c[nH]c2ccccc12)C(=O)NC(Cc1c[nH]c2ccccc12)C(=O)O (centres unmarked) [WW] was run?
Its value is -73553.54.

And the “Normalized CD spectra” value ([1]; wave length 190.50)?
Its value is -15766.44.

And the “Normalized CD spectra” value ([1]; wave length 191.00)?
Its value is 35958.05.

What about the “Normalized CD spectra” value ([1]; wave length 191.50) of the same compound?
The value was 81619.94.

And the “Normalized CD spectra” value ([1]; wave length 192.00)?
The value was 121219.23.

What about the “Normalized CD spectra” value ([1]; wave length 192.50) of the same compound?
The value was 154755.92.

And the “Normalized CD spectra” value ([1]; wave length 193.00)?
Its value is 182230.00.

And the “Normalized CD spectra” value ([1]; wave length 193.50)?
Its value is 203641.48.

What about the “Normalized CD spectra” value ([1]; wave length 194.00) of the same compound?
Its value is 218990.36.

And the “Normalized CD spectra” value ([1]; wave length 194.50)?
Its value is 228276.63.

And the “Normalized CD spectra” value ([1]; wave length 195.00)?
The value was 231500.30.

What about the “Normalized CD spectra” value ([1]; wave length 195.50) of the same compound?
Its value is 225800.71.

And the “Normalized CD spectra” value ([1]; wave length 196.00)?
The value was 212602.53.

What about the “Normalized CD spectra” value ([1]; wave length 196.50) of the same compound?
The value was 192673.83.

And the “Normalized CD spectra” value ([1]; wave length 197.00)?
Its value is 167389.33.

What about the “Normalized CD spectra” value ([1]; wave length 197.50) of the same compound?
The value was 138095.62.

And the “Normalized CD spectra” value ([1]; wave length 198.00)?
The value was 105620.63.

And the “Normalized CD spectra” value ([1]; wave length 198.50)?
The value was 71268.15.

What about the “Normalized CD spectra” value ([1]; wave length 199.00) of the same compound?
Its value is 34612.79.

And the “Normalized CD spectra” value ([1]; wave length 199.50)?
The value was -3059.42.

What about the “Normalized CD spectra” value ([1]; wave length 200.00) of the same compound?
Its value is -41012.41.

What about the “Normalized CD spectra” value ([1]; wave length 200.50) of the same compound?
Its value is -77900.86.

What about the “Normalized CD spectra” value ([1]; wave length 201.00) of the same compound?
The value was -113482.60.

And the “Normalized CD spectra” value ([1]; wave length 201.50)?
Its value is -149046.90.

And the “Normalized CD spectra” value ([1]; wave length 202.00)?
Its value is -184972.48.

What about the “Normalized CD spectra” value ([1]; wave length 202.50) of the same compound?
The value was -219485.50.

And the “Normalized CD spectra” value ([1]; wave length 203.00)?
Its value is -252839.40.

And the “Normalized CD spectra” value ([1]; wave length 203.50)?
The value was -284772.39.

What about the “Normalized CD spectra” value ([1]; wave length 204.00) of the same compound?
The value was -314917.56.

What about the “Normalized CD spectra” value ([1]; wave length 204.50) of the same compound?
Its value is -342821.04.

What about the “Normalized CD spectra” value ([1]; wave length 205.00) of the same compound?
The value was -369216.74.

And the “Normalized CD spectra” value ([1]; wave length 205.50)?
Its value is -393550.37.

What about the “Normalized CD spectra” value ([1]; wave length 206.00) of the same compound?
The value was -417348.83.

What about the “Normalized CD spectra” value ([1]; wave length 206.50) of the same compound?
The value was -438915.06.

And the “Normalized CD spectra” value ([1]; wave length 207.00)?
Its value is -457557.09.

What about the “Normalized CD spectra” value ([1]; wave length 207.50) of the same compound?
Its value is -473195.60.

And the “Normalized CD spectra” value ([1]; wave length 208.00)?
Its value is -486009.60.

And the “Normalized CD spectra” value ([1]; wave length 208.50)?
Its value is -496658.21.

And the “Normalized CD spectra” value ([1]; wave length 209.00)?
The value was -506978.42.

And the “Normalized CD spectra” value ([1]; wave length 209.50)?
The value was -515749.12.

What about the “Normalized CD spectra” value ([1]; wave length 210.00) of the same compound?
The value was -522740.26.

And the “Normalized CD spectra” value ([1]; wave length 210.50)?
The value was -528398.60.

What about the “Normalized CD spectra” value ([1]; wave length 211.00) of the same compound?
Its value is -534227.02.

And the “Normalized CD spectra” value ([1]; wave length 211.50)?
The value was -539337.45.

What about the “Normalized CD spectra” value ([1]; wave length 212.00) of the same compound?
Its value is -544717.07.

And the “Normalized CD spectra” value ([1]; wave length 212.50)?
The value was -549064.94.

What about the “Normalized CD spectra” value ([1]; wave length 213.00) of the same compound?
The value was -552893.06.

What about the “Normalized CD spectra” value ([1]; wave length 232.00) of the same compound?
The value was -158822.48.

And the “Normalized CD spectra” value ([1]; wave length 232.50)?
The value was -145896.86.

What about the “Normalized CD spectra” value ([1]; wave length 233.00) of the same compound?
The value was -133288.90.

What about the “Normalized CD spectra” value ([1]; wave length 233.50) of the same compound?
The value was -121276.73.

And the “Normalized CD spectra” value ([1]; wave length 234.00)?
Its value is -108420.01.

And the “Normalized CD spectra” value ([1]; wave length 234.50)?
The value was -94402.20.

What about the “Normalized CD spectra” value ([1]; wave length 235.00) of the same compound?
Its value is -80851.94.

And the “Normalized CD spectra” value ([1]; wave length 235.50)?
Its value is -67553.80.

And the “Normalized CD spectra” value ([1]; wave length 236.00)?
The value was -53046.10.

What about the “Normalized CD spectra” value ([1]; wave length 236.50) of the same compound?
The value was -38359.94.

And the “Normalized CD spectra” value ([1]; wave length 237.00)?
The value was -24169.94.

What about the “Normalized CD spectra” value ([1]; wave length 237.50) of the same compound?
The value was -9295.33.

And the “Normalized CD spectra” value ([1]; wave length 238.00)?
The value was 4979.26.

And the “Normalized CD spectra” value ([1]; wave length 238.50)?
The value was 18805.26.

What about the “Normalized CD spectra” value ([1]; wave length 239.00) of the same compound?
The value was 32522.94.

What about the “Normalized CD spectra” value ([1]; wave length 239.50) of the same compound?
The value was 44912.46.

What about the “Normalized CD spectra” value ([1]; wave length 240.00) of the same compound?
Its value is 56635.42.

What about the “Normalized CD spectra” value ([1]; wave length 240.50) of the same compound?
Its value is 67013.51.

And the “Normalized CD spectra” value ([1]; wave length 241.00)?
The value was 74841.22.

What about the “Normalized CD spectra” value ([1]; wave length 241.50) of the same compound?
Its value is 81258.78.

And the “Normalized CD spectra” value ([1]; wave length 242.00)?
Its value is 86276.81.

What about the “Normalized CD spectra” value ([1]; wave length 242.50) of the same compound?
Its value is 90384.02.

What about the “Normalized CD spectra” value ([1]; wave length 243.00) of the same compound?
Its value is 92798.03.

And the “Normalized CD spectra” value ([1]; wave length 243.50)?
Its value is 93594.35.

And the “Normalized CD spectra” value ([1]; wave length 244.00)?
The value was 93999.17.

And the “Normalized CD spectra” value ([1]; wave length 244.50)?
The value was 92992.13.

And the “Normalized CD spectra” value ([1]; wave length 245.00)?
Its value is 90422.16.

And the “Normalized CD spectra” value ([1]; wave length 245.50)?
The value was 86663.60.

What about the “Normalized CD spectra” value ([1]; wave length 246.00) of the same compound?
Its value is 82929.71.

What about the “Normalized CD spectra” value ([1]; wave length 246.50) of the same compound?
The value was 77838.15.

And the “Normalized CD spectra” value ([1]; wave length 247.00)?
Its value is 72115.03.

And the “Normalized CD spectra” value ([1]; wave length 247.50)?
Its value is 67454.01.

And the “Normalized CD spectra” value ([1]; wave length 248.00)?
The value was 62170.09.

And the “Normalized CD spectra” value ([1]; wave length 248.50)?
The value was 58159.55.

And the “Normalized CD spectra” value ([1]; wave length 249.00)?
Its value is 54507.86.

And the “Normalized CD spectra” value ([1]; wave length 249.50)?
The value was 50774.14.

And the “Normalized CD spectra” value ([1]; wave length 250.00)?
The value was 48265.73.

What about the “Normalized CD spectra” value ([1]; wave length 250.50) of the same compound?
Its value is 46578.32.

What about the “Normalized CD spectra” value ([1]; wave length 251.00) of the same compound?
Its value is 45531.49.

What about the “Normalized CD spectra” value ([1]; wave length 251.50) of the same compound?
Its value is 45968.11.

And the “Normalized CD spectra” value ([1]; wave length 252.00)?
The value was 46977.38.

What about the “Normalized CD spectra” value ([1]; wave length 252.50) of the same compound?
Its value is 48862.26.

What about the “Normalized CD spectra” value ([1]; wave length 253.00) of the same compound?
Its value is 50826.53.

What about the “Normalized CD spectra” value ([1]; wave length 253.50) of the same compound?
Its value is 52698.23.

And the “Normalized CD spectra” value ([1]; wave length 254.00)?
Its value is 54591.66.

And the “Normalized CD spectra” value ([1]; wave length 254.50)?
Its value is 55574.45.

And the “Normalized CD spectra” value ([1]; wave length 255.00)?
Its value is 55730.02.

What about the “Normalized CD spectra” value ([1]; wave length 255.50) of the same compound?
Its value is 53034.53.

And the “Normalized CD spectra” value ([1]; wave length 256.00)?
Its value is 49400.95.

And the “Normalized CD spectra” value ([1]; wave length 256.50)?
The value was 44829.26.

What about the “Normalized CD spectra” value ([1]; wave length 257.00) of the same compound?
The value was 39319.47.

And the “Normalized CD spectra” value ([1]; wave length 257.50)?
The value was 32871.59.

What about the “Normalized CD spectra” value ([1]; wave length 258.00) of the same compound?
Its value is 25485.60.

And the “effect on Aβ42 secondary structure (CD), in words” value (Aβ42)?
The value was “No significant variation”.
